These results are taken from paper PMC12299470, “Selection of an Optimal Metabolic Model for Accurately Predicting the Hepatic Clearance of Albumin-Binding-Sensitive Drugs” (Pharmaceuticals, 2025).

Details of data set [1]: method as in EMBL-EBI database. The conditions noted are these: ref EMBL-EBI database, cited from earlier work; for HBA: hydrogen-bond acceptor; for HBD: hydrogen-bond donor.
The nature of data set [2]: Fitting of hepatic clearance models (MWSM, WSM, PTM, DM) to IPRL FH vs fu data. The conditions noted are these: male, Sprague-Dawley, rat, isolated perfused rat liver. On the procedure:
(§1) Under this condition, hepatic availability (FH) served as a clear and practical indicator of CLH. […] Based on the principles of the WSM, Equations (3) and (4) were derived by applying Equations (1) and (2), in conjunction with the concept that CLH equals the liver blood flow multiplied by the extraction ratio. Subsequently, data fitting was performed using these formulas.
(§2) Rosuvastatin consistently aligned with the MWSM predictions throughout the experiment.
(§3) The extraction recovery, calibration curves and retention time of each compound are shown in Table S1, Figures S1 and S2, respectively. All available experimental data were included in the analysis. The formula and experimental data were processed by Prism software v10.4.1 (GraphPad Software, Inc) to generate figures and calculate the degree of fit of different models.

Data set [3] deals with isolated perfused rat liver. The description is as above. As for the experimental part: as §1, §2, §3
Details of data set [4]: method as in PMID 35901930. The settings on record: fraction unbound in plasma; regression dataset; cited from earlier work.
Data set [5] relates to organic anion-transporting polypeptide. More on the design: method as in El-Kattan et al. [36] and DrugBank. The conditions noted are these: With / Without; ref El-Kattan et al. [36] and DrugBank; cited from earlier work.
A further data set has as its system p-glycoprotein. Also on record: method as in El-Kattan et al. [36] and DrugBank. The conditions noted are these: With / Without; ref El-Kattan et al. [36] and DrugBank; cited from earlier work.
A further data set addresses human serum albumin (Homo sapiens, UniProt P02768). Put plainly: Rapid equilibrium dialysis (RED), fraction unbound at various HSA concentrations. Type of data set: in vitro ADME. The settings on record: drug 1 μg/mL in Krebs buffer, 37 °C, read-out: fraction unbound (fu). On the procedure: The rapid equilibrium dialysis (RED) apparatus and test inserts were purchased from Thermo Fisher Scientific (Rockford, IL, USA). The unbound fraction of each assessed drug was determined using RED. Briefly, a drug was diluted to 1 μg/mL in Krebs buffer containing different concentrations of HSA. Five hundred microliters of the assessed drug and each of the different HSA concentrations were added to the sample chamber of an insert and 750 μL of blank buffer was added to the adjacent chamber. The loaded inserts were then assembled on a Teflon-based plate.
(In general: Equilibrium dialysis compares concentrations on both sides of a semipermeable membrane.)

Setting [6] is: Krebs buffer with 0% HSA, 0% HSA.
Where [7] appears, read: Krebs buffer with 0.1% HSA, 0.1% HSA.
Setting [8] is: Krebs buffer with 2% HSA, 2% HSA.
Where [9] appears, read: Krebs buffer with […] HSA, 0.25% HSA.

Where two headings read alike, the source gives them in different places.

A word on the fraction unbound: it is free concentration divided by total concentration.

Sequence of human serum albumin (P02768 25-609): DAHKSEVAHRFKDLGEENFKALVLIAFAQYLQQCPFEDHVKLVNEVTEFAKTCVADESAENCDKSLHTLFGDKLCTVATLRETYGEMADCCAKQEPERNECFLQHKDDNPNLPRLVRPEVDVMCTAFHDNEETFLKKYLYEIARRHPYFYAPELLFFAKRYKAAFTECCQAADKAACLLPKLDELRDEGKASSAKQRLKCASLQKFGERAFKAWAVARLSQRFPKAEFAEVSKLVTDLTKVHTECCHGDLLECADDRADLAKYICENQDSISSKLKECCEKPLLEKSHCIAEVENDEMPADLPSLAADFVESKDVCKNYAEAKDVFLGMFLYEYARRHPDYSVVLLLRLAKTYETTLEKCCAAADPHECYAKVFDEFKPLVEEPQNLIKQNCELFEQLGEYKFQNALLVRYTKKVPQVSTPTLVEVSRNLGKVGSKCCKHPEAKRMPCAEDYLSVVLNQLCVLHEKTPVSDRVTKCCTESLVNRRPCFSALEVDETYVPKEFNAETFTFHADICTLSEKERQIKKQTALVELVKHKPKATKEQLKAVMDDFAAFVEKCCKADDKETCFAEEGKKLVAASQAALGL

As for `CN1C(=O)CN=C(c2ccccc2)c2cc(Cl)ccc21` [Diazepam], in data set [1], the “Aromatic Rings” value is on record as 2 and the “Heavy Atoms” value is on record as 20.
In turn, `O=C(O)Cc1ccccc1Nc1c(Cl)cccc1Cl` [Diclofenac] had a fraction unbound in data set [2] of 0.576 to 0.872. In addition, in data set [3] (HSA interval 0–0.01%), the “Optimal Model” value is listed as “MWSM”; the “sum of squares, DM” value was determined as 0.0792; the “sum of squares, Modified WSM” value came to 0.0278; the “sum of squares, PTM” value turned out to be 0.0702. Further, the “sum of squares, WSM” value in data set [3] (HSA interval 0–0.01%) was found to be 0.0885. Besides, in data set [3] (HSA interval 0.025–2%), the “Optimal Model” value is recorded as “WSM”; the “sum of squares, DM” value was determined as 0.1400; the “sum of squares, Modified WSM” value is given as 0.2923; the “sum of squares, PTM” value is reported as 0.1790. Further, the “sum of squares, WSM” value in data set [3] (HSA interval 0.025–2%) was 0.1194. In data set [3] (male, Sprague-Dawley, rat), the “CLint, DM” value was determined as 35.94; the “CLint, PTM” value is reported as 27.63; the “CLint, WSM” value came out at 43.68. Further, in data set [1], the HBA is listed as 3, the HBD is on record as 2, the “Aromatic Rings” value was 2 and the “Heavy Atoms” value is 19. Besides, the fu p in data set [4] was 0.004. The OATP entry in data set [5] is on record as “Without”. In the data set with p-glycoprotein, the P-gp result is on record as “Without”.
For `CNCCC(Oc1ccc(C(F)(F)F)cc1)c1ccccc1` (centres unmarked) [Fluoxetine], the free fraction (fraction unbound) at 8 h, 1 μg/mL is 0.99 at human serum albumin (setting [6]); 0.45 at human serum albumin (setting [7]); 0.05 on human serum albumin (setting [8]); 0.87 at human serum albumin (Krebs buffer with […] HSA, 0.025% HSA); 0.4 at human serum albumin (setting [9]). For the same compound, the “Optimal Model” value in data set [3] (HSA interval 0–2%) was “WSM”. Moreover, the “sum of squares, DM” value in data set [3] (HSA interval 0–2%) was 0.2062. Also, in data set [3] (HSA interval 0–2%), the “sum of squares, Modified WSM” value worked out at 5.9630. The “sum of squares, PTM” value in data set [3] (HSA interval 0–2%) was found to be 0.2096. Also, the “sum of squares, WSM” value in data set [3] (HSA interval 0–2%) turned out to be 0.1154.
`CC(C)c1nc(N(C)S(C)(=O)=O)nc(-c2ccc(F)cc2)c1/C=C/[C@@H](O)C[C@@H](O)CC(=O)O` [Rosuvastatin]: at human serum albumin (setting [6]), the fraction unbound at 8 h, 1 μg/mL came out at 0.99. Moreover, at human serum albumin (setting [7]), the fraction unbound at 8 h, 1 μg/mL worked out at 0.9. Also, the free fraction (fraction unbound) at 8 h, 1 μg/mL on human serum albumin (Krebs buffer with 0.375% HSA, 0.375% HSA) is 0.65. Moreover, on human serum albumin (Krebs buffer with 0.5% HSA, 0.5% HSA), the fraction unbound at 8 h, 1 μg/mL turned out to be 0.51. Further, on human serum albumin (Krebs buffer with 1% HSA, 1% HSA), the fraction unbound at 8 h, 1 μg/mL worked out at 0.42. Besides, the fraction unbound at 8 h, 1 μg/mL at human serum albumin (setting [8]) stood at 0.29. Besides, the free fraction (fraction unbound) at 8 h, 1 μg/mL on human serum albumin (setting [9]) was found to be 0.77. For the same compound, in data set [3] (HSA interval 0–2%), the “Optimal Model” value is reported as “MWSM”; the “sum of squares, DM” value is on record as 1.4550; the “sum of squares, Modified WSM” value came out at 0.2132; the “sum of squares, PTM” value is 1.0670. The “sum of squares, WSM” value in data set [3] (HSA interval 0–2%) turned out to be 1.8440. In data set [1], the HBA is given as 9, the HBD is given as 3, the “Aromatic Rings” value is reported as 2 and the “Heavy Atoms” value is 33. Also, in data set [1] (polar surface area, in Å2 (unit assumed)), the PSA is given as 140.9. In addition, the fu p in data set [4] is on record as 0.129. For the same compound, the OATP entry in data set [5] is “With”. The P-gp result in the data set on p-glycoprotein was “Without”.
